In ChEMBL document CHEMBL1140688, “Sulfenamides as prodrugs of NH-acidic compounds: a new prodrug option for the amide bond” (Bioorg Med Chem Lett, 2007):

What was measured:
Assay type in all cases: physicochemical
Details in all cases: buffer
[1] = Chemical stability assessed as half life at pH 6.0
[2] = Chemical stability assessed as half life at pH 7.0
[3] = Chemical stability assessed as half life at pH 6.5

SMILES: CCOC(=O)[C@@H](N)CSNC(=O)N1c2ccccc2C=Cc2ccccc21
- half-life [1]: 214 h
- half-life [2]: 50.4 h
- half-life [3]: 81.6 h
